Reference: US20240140947A1, “COMPOUND FOR THE TREATMENT OF CANCER” (priority 2022, published 2024)
Where two headings read alike, the source gives them in different places.

Tests used:
MCF7 PalboR = experiment: Cell proliferation assay (CYQUANT, 7 days), MCF7 PalboR; type: cell-based; details: Homo sapiens, read-out: IC50 ± SEM, proliferation inhibition
Experimental: (§1) Cellular CDK activity of Compound 1 and PF-06873600 were assessed in human CCNE1-amplified ovarian cancer cell line model OVCAR3 and human ER+ breast cancer cell line model MCF7 cells. […] OVCAR3 cells were treated overnight with 1 mM hydroxyurea to enrich for G1/S phase cells prior to treatment with inhibitors. Functional effects were measured in a 7-day anti-proliferation assay in one human ovarian cancer (OVCAR3), two human ER+ breast cancer (MCF7 and T47D) and three human non-small cell lung cancer (NCIH2087, NCIH358 and A549) cell line models.
(§2) OVCAR3, MCF7, T47D, HCC1428, NCIH2087, NCIH358 or A549cells were seeded 1-3000 cells/well in 96-well plates in growth media containing 10% FBS and cultured overnight at 37° C. 5% CO2. […] CYQUANT Direct Cell Proliferation Assay (Molecular Probes, Eugene, OR) was then performed following manufacturer recommendations to determine the relative viable cell numbers on the Perkin Elmer Envision 2104 Multi Label Reader at 508 nm excitation and 527 nm emission wavelengths. IC50 values were calculated by concentration-response curve fitting utilizing a four-parameter analytical method using GraphPad Prism software.
(§3) The effect of Compound 1 on cell proliferation was assessed in multiple ER+ breast cancer cell lines, including parental and palbociclib resistant cell lines.

OVCAR3 = experiment: Cell proliferation assay (CYQUANT, 7 days), OVCAR3; type: cell-based; details: Homo sapiens, OVCAR-3, 168 h, read-out: IC50 ± SEM, proliferation inhibition
Experimental: as §1
as §2, with “CO2. The following day, compounds were serially diluted from a 10 mM top dose for an 11-point 3-fold dilution curve in DMSO.” for “CO2.”

[1] = Human blood binding (fub = fup/BPR); type: in vitro ADME; details: fup divided by BPR
Experimental: Compound 1 has been evaluated according to methods well known in the art, for its ability to partition between human plasma and blood. Based on the observed partitioning and plasma protein binding, the blood binding was estimated based on human blood unbound fraction (fub)=human plasma unbound fraction (fup)/human blood-to-plasma partition ratio (BPR). Human blood unbound fraction (fub) was calculated by dividing fup by BPR.

HCC1428 parental = experiment: Cell proliferation assay (CYQUANT, 7 days), HCC1428 parental; type: cell-based; details: Homo sapiens, read-out: IC50 ± SEM, proliferation inhibition
Experimental: (§4) OVCAR3, MCF7, T47D, HCC1428, NCIH2087, NCIH358 or A549cells were seeded 1-3000 cells/well in 96-well plates in growth media containing 10% FBS and cultured overnight at 37° C. 5% CO2. The following day, compounds were serially diluted from a 10 mM top dose for an 11-point 3-fold dilution curve in DMSO. Compound 1 and PF-06873600 were intermediately diluted 1:200 into growth media prior to diluting 1:5 on cells for final concentration 10 μM to 0.1 nM in 0.1% DMSO on cells. Cells were incubated at 37° C. 5% CO2 for 7 days. CYQUANT Direct Cell Proliferation Assay (Molecular Probes, Eugene, OR) was then performed following manufacturer recommendations to determine the relative viable cell numbers on the Perkin Elmer Envision 2104 Multi Label Reader at 508 nm excitation and 527 nm emission wavelengths. IC50 values were calculated by concentration-response curve fitting utilizing a four-parameter analytical method using GraphPad Prism software.
as §3

[2] = Dog i.v. pharmacokinetic study; type: in vivo; details: for Vd: dog, plasma, iv, 0.1 mg/kg, male Beagle dogs, read-out: Dog Vdss
Experimental: Dog PK studies were done at Pfizer (Groton, CT); animal care and in vivo procedures were conducted according to guidelines from the Pfizer Institutional Animal Care and Use Committee. Male Beagle dogs were purchased from Marshall BioResources (North Rose, New York) and were typically 1-5 years of age at the time of dosing. Compounds were administered i.v. via the cephalic vein (n=2), dosed as a solution using standard compatible excipients at 0.5 mL/kg for a resulting dose of 0.1 mg/kg. Serial blood samples were collected via the jugular vein at predetermined timepoints after dosing. Animals were monitored for pain or distress throughout the study, with at least daily monitoring during normal husbandry prior to study start. Blood samples were collected into tubes containing K3EDTA and stored on ice until centrifugation to obtain plasma, which was stored frozen at −20° C. or lower. Urine samples were collected at room temperature and stored frozen at −20° C. or lower at the end of each time interval. Plasma samples from the animal PK studies were processed using protein precipitation with acetonitrile: methanol (1:1) containing internal standard verapamil followed by quantitation by LC-MS/MS against a standard curve prepared in blank plasma. Pharmacokinetic parameters were calculated using noncompartmental analysis (Watson v.7.5, Thermo Scientific).

NCIH358 = experiment: Cell proliferation assay (CYQUANT, 7 days), NCIH358; type: cell-based; details: Homo sapiens, NCI-H358, 168 h, read-out: IC50 ± SEM, proliferation inhibition
Experimental: as §1
as §2, with “CO2. The following day, compounds were serially diluted from a 10 mM top dose for an 11-point 3-fold dilution curve in DMSO.” for “CO2.”

[3] = Mouse early toxicology screening (ETS) study; type: in vivo; details: for bone marrow histology: day 14, Compound 1 75 mg/kg BID, PF-06873600 150 mg/kg BID, compared with vehicle
Experimental: Three groups of ten-week-old male CD1 mice were separately evaluated in early toxicology screening studies. Group 1 (n=5/group) were administered an oral dose of 25, 50 and 75 mg/kg BID of Compound 1 for 14 days. Group 2 (n=5/group) were administered an oral dose of 25, 75 and 150 mg/kg BID of PF-06873600 for 14 days. A vehicle control Group 3 (n=5/group) were also included where vehicle was administered BID for 14 days. Study evaluations included clinical observations, body weights, clinical pathology, toxicokinetics, gross pathology and microscopic pathology.
At the end of the ETS study on day 14, mice were sacrificed and images of the mouse bone marrow from each study group (n=5) were obtained.
The systemic exposure of Compound 1 and PF-06873600 were also compared. Exposures from mouse toxicity studies were determined using plasma samples collected as timepoints on day 8 or 14 of the study and were processed using protein precipitation with solvent mixture acetonitrile:methanol (1:1) containing internal standard verapamil followed by quantitation by LC-MS/MS against a standard curve prepared in blank plasma. The free plasma concentrations were calculated using the mouse plasma protein binding for compound 1 (fup=0.182) and PF-06873600 (fup=0.277). (FIG. 3)

NCIH2087 = experiment: Cell proliferation assay (CYQUANT, 7 days), NCIH2087; type: cell-based; details: Homo sapiens, NCI-H2087, 168 h, read-out: IC50 ± SEM, proliferation inhibition
Experimental: as §1
as §2, with “CO2. The following day, compounds were serially diluted from a 10 mM top dose for an 11-point 3-fold dilution curve in DMSO.” for “CO2.”

MCF7 parental = experiment: Cell proliferation assay (CYQUANT, 7 days), MCF7 parental; type: cell-based; details: Homo sapiens, read-out: IC50 ± SEM, proliferation inhibition
Experimental: as §1
as §2, with “CO2. The following day, compounds were serially diluted from a 10 mM top dose for an 11-point 3-fold dilution curve in DMSO.” for “CO2.”

T47D PalboR = experiment: Cell proliferation assay (CYQUANT, 7 days), T47D PalboR; type: cell-based; details: Homo sapiens, 168 h, read-out: IC50 ± SEM, proliferation inhibition
Experimental: as §1, §2, §3

HCC1428 PalboR = experiment: Cell proliferation assay (CYQUANT, 7 days), HCC1428 PalboR; type: cell-based; details: Homo sapiens, read-out: IC50 ± SEM, proliferation inhibition
Experimental: as §4, §3

Structure (SMILES): C[C@@]1(O)CCC[C@H]1n1c(=O)c(CC(F)F)cc2cnc(NC3CCN(S(N)(=O)=O)CC3)nc21 [Compound 1, 4-({6-(2,2-difluoroethyl)-8-[(1R,2R)-2-hydroxy-2-methylcyclopentyl]-7-oxo-7,8-dihydropyrido[2,3-d]pyrimidin-2-yl}amino)piperidine-1-sulfonamide]
- IC50 (MCF7 PalboR; 168 h, MCF7 PalboR, 7 days, mean): 37.3 ± 2.8 nM
- IC50 (OVCAR3; OVCAR3, 7 days, mean): 11.4 nM
- fraction unbound [1]: 0.0022
- IC50 (HCC1428 parental; 168 h, HCC1428 parental, 7 days, mean): 14.3 ± 4.4 nM
- Dog Vdss unbound: (Dog Vdss/dog plasma fu) [2]: 6.7 L/kg
- Vd [2]: 1.5 L/kg
- IC50 (NCIH358; NCIH358, 7 days, mean): 21 ± 2.2 nM
- bone marrow histology [3]: lack of impact on the mouse bone marrow
- neutropenia ([3]; male CD1 mice, oral 25, 50 and 75 mg/kg BID for 14 days): no neutropenia was observed
- IC50 (NCIH2087; NCIH2087, 7 days, mean): 40 ± 6.8 nM
- IC50 (MCF7 parental; 168 h, MCF7 parental, 7 days, mean): 16.8 ± 6.7 nM
- IC50 (T47D PalboR; T47D PalboR, 7 days, mean): 65.7 ± 8.8 nM
- IC50 (HCC1428 PalboR; 168 h, HCC1428 PalboR, 7 days, mean): 61.4 ± 4.9 nM

Structure (SMILES): C[C@@]1(O)CCC[C@H]1n1c(=O)c(C(F)F)cc2cnc(NC3CCN(S(C)(=O)=O)CC3)nc21 [Compound 2, reference compound]
- IC50 (MCF7 PalboR; MCF7, 168 h): 111 ± 56.1 nM
- IC50 (OVCAR3): 70 ± 11.7 nM
- fraction unbound [1]: 0.32
- IC50 (HCC1428 parental; HCC1428, 168 h): 96.7 ± 26.4 nM
- Dog Vdss unbound: (Dog Vdss/dog plasma fu) [2]: 2.8 L/kg
- Vd [2]: 1.1 L/kg
- IC50 (NCIH358): 39 nM
- bone marrow histology [3]: vacuoles and large spaces between cells in the bone marrow image indicating cell death/apoptosis
- IC50 (NCIH2087): 79.8 nM
- IC50 (MCF7 parental; MCF7, 168 h): 38.6 ± 10.2 nM
- IC50 (T47D PalboR; T47D): 253 ± 55.1 nM
- IC50 (HCC1428 PalboR; HCC1428, 168 h): 269 ± 63.9 nM
